Patent US20190307771A1, “METHODS AND COMPOSITIONS FOR THE TREATMENT OF CANCER AND METABOLIC DISEASES” (THE REGENTS OF THE UNIVERSITY OF CALIFORNIA, priority 2016, published 2019)
“Also recorded” adds a separate entry of the source. Like-named read-outs stand apart in the source and are kept apart here.

Key:
[1] = system: HDAC1, HDAC4, SIRT1, cyclin A2 (CCNA2); experiment: Western blot of protein deacetylases and cyclin A2 in HCT116 cells; assay type: cell-based
Method: HCT116 cells were transfected with either an miR-22 mimic or a scramble control, and 48 hours later the protein levels of HDAC4, SIRT1, and cyclin A2 were measured (FIG. 3B). The expression of all three proteins was reduced by treatment with the miR-22 mimic.
(§1) Western blot and immunoprecipitation were performed as described previously^22. Specific antibodies used included anti-NUR77, RARβ, SIRT1, β-actin, and IgG (Santa Cruz Biotechnology, Santa Cruz, Calif.), phospho-JNK1/2, total JNK1/2, cleaved caspase3, HDAC1 and HDAC4 (Cell Signaling Technology, Beverly, Mass.), and CCNA2 (Novus Biologicals, Littleton, Colo.). To detect protein acetylation of NUR77 and RARβ, cell lysates (500 μg) were incubated with anti-NUR77, RARβ, or IgG antibody (1 μg), precipitated by adding Dynabeads (30 μl, Life Technologies, Carlsbad, Calif.), and probed with anti-Acetyl-lysine antibody (Cell Signaling Technology, Beverly, Mass.). To study the interaction between RARβ and NUR77, whole-cell lysates were precipitated with anti-RARβ or NUR77 antibody followed by Western blot using anti-NUR77 or RARβ antibody.

[2] = system: miR-22; settings: published data, cited from earlier work
[3] = system: CYCLIN A2, HDAC1, HDAC4, SIRT1; experiment: Protein levels in Huh7 liver cancer cells
[4] = system: NUR77 and RARβ; experiment: Immunoprecipitation/Western blot: protein acetylation of NUR77 and RARβ; assay type: cell-based; settings: HCT116 cells; IP with anti-NUR77 or anti-RARβ, anti-acetyl lysine blot
Text: FIG. 12A depicts the expression levels of proteins that were extracted from HCT116 cells and immunoprecipitated by anti-NUR77 and RARβ antibodies or IgG, followed by Western blot using an anti-acetyl lysine antibody. […] The mRNA levels of NUR77 target genes BRE as well as CCND2 and RARβ target genes RARβ and CYP26A1 in HCT116 cells are shown in FIG. 12C.
(§2) NUR77 and RARβ acetylation status was also studied because protein acetylation alters nuclear receptor activity^37. […] To study the effect of RA/butyrate in modulating NUR77 and RARβ transcriptional activity, ChIP-qPCR and RT-PCR were performed to determine receptor binding to transcriptional regulatory regions and mRNA levels of downstream targets, respectively.
as §1

[5] = system: NUR77; experiment: ChIP-qPCR and RT-PCR: NUR77 binding to BRE and CCND2 and their mRNA; assay type: cell-based; settings: HCT116 cells
Method: as §2
(§3) Chromatin immunoprecipitation (ChIP)-qPCR ChIP-qPCR was performed as described previously^21. Briefly, chromatin lysate was precleared before incubation with an anti-H3K9AC antibody (Millipore. Billerica, Mass.), anti-HDAC1 and anti-HDAC4 (Cell signaling technology, Beverly, Mass.) or anti-SIRT1 antibody (Santa Cruz Biotechnology, Santa Cruz, Calif.). IgG (Santa Cruz Biotechnology, Santa Cruz, Calif.) and RNA Polymerase II antibody (Millipore, Billerica, Mass.) were used as negative and positive controls, respectively. Samples were incubated with Dynase beads at 4° C. overnight followed by de-crosslinking and purification. DNA fragments generated served as templates for qPCR using Power SYBR1 Green PCR Master Mix.

[6] = system: NUR77 and RARβ; experiment: Induction and localization of NUR77 and RARβ in HCT116 cells; assay type: cell-based; settings: 48 hours, RA 10 μM, butyrate 5 mM, SAHA 5 μM, EGF 32 nM
Method: Proteins were immunoprecipitated by anti-NUR77 or anti-RARβ antibodies, or IgG, followed by Western blot using anti-RARβ or anti-NUR77 antibodies.
To study the effect of miR-22 in induction of cytosolic NUR77 by RA/butyrate, adenoviral-delivery of miR-22 inhibitors tagged with green fluorescence (adeno-miR-22 inhibitor-GFP, Applied Biological Materials Inc, Richond, BC) were used to infect HCT116 cells. At 48 hours post adenoviral infection, cells were treated with RA (10 μM) plus butyrate (5 mM) or DMSO for 24 hours. […] Cells were mounted in ProLong® Gold Antifade Reagent with DAPI (4′,6-diamidino-2-phenylindole, Life Technologies, Carlsbad, Calif.) and imaged under Keyence BZ-9000 microscope.

[7] = system: HCT116 colon cancer cells; experiment: MTT cell viability assay in HCT116 cells; assay type: cell-based; settings: RA 10 μM, butyrate 5 mM, SAHA 5 μM; for Cell viability (MTT assay): 24 hours; for Cell viability: 48 hours, propionate 10 mM, valerate 10 mM, vs. DMSO
Method: Cell viability was monitored by MTT assay.
HCT116 cells (American Type Culture Collection) were maintained in McCoy's 5a medium from Gibco (Life Technologies, Carlsbad, Calif.) with 10% FBS. Cells were plated (1×10^6 cells per 60-mm dish, 2×10^5 cells per 6-well plates, and 1×10^5 cells per 24-well plates) overnight prior to treatment or transfection.
Cells were stained with 3-(4,5-dimethylthiazol-2-O-2,5-diphenyltetrazolium bromide (MTT, Sigma-Aldrich, St. Louis, Mo.) and measured at 570 nm with Microplate Reader (Biotek, Winooski, Vt.).

[8] = system: RARB and NUR77 genes; experiment: ChIP-qPCR: HDAC recruitment and H3K9 acetylation at RARB and NUR77 genes in HCT116 cells; assay type: cell-based; settings: RA 10 μM, butyrate 5 mM, SAHA 5 μM; for H3K9 acetylation of NUR77 and RARβ genes (ChIP-qPCR) / Recruitment of HDAC1, HDAC4, and SIRT1 to the regulatory region of NUR77 and RARβ (ChIP-qPCR): 24 hours
Method: Cell lysates were used for ChIP with antibodies specific for HDAC1, HDAC4, SIRT1, or acetylated H3K9, followed by qPCR using primers specific for the RARB and NUR77 genes. DMSO treated cells and IP using IgG were included as negative controls. […]inding was expressed relative to the IgG negative controls.
as §3

[9] = system: RARβ; experiment: ChIP-qPCR: RARβ binding to DR5 motif upstream of RARβ and CYP26A1 genes; assay type: cell-based; settings: HCT116 cells
Method: as §2, §3

[10] = system: miR-22; experiment: miR-22 expression in HCT116 cells (qRT-PCR); assay type: cell-based; settings: 24 hours, RA 10 μM, butyrate 5 mM, propionate 10 mM, valerate 10 mM, SAHA 5 μM
Method: To study the effect of RA and HDAC inhibitors on miR-22 expression, HCT116 cells were treated with RA, butyrate, propionate, valerate, and SAHA. The SCFA concentrations used were within physiologic ranges^35.
(§4) Total RNA was extracted with TRIzol Reagent (Invitrogen, Carlsbad, Calif.), and cDNA was generated using High Capacity RNA-to-cDNA Kit (Applied Biosystems, Carlsbad, Calif.). qRT-PCR was performed on ABI 7900HT Fast Real time PCR system using Power SYBR® Green PCR Master Mix (Applied Biosystems, Carlsbad, Calif.).

[11] = system: retinoic acid receptor beta (RARβ); experiment: RARB expression in HCT116 cells (qRT-PCR); assay type: cell-based; settings: 24 hours, RA 10 μM, butyrate 5 mM, SAHA 5 μM
Method: as §4

[12] = system: HDAC1, HDAC4, SIRT1, cyclin A2 (CCNA2); experiment: Western blot of protein deacetylases and cyclin A2 in HCT116 cells; assay type: cell-based; settings: 24 hours, RA 10 μM, butyrate 5 mM, SAHA 5 μM
[13] = system: Class I (HDAC1, 2, 3, and 8) and Class IIa (HDAC4, 5, 7, and 9); settings: cited from earlier work
[14] = system: Gpr41, Gpr43, Gpr109a, Pgc1α, Pepck, Fas; experiment: Ileal and hepatic mRNA levels in mice after oral gavage; assay type: in vivo, C57BL/6 mice; settings: RA 15 mg/kg and/or butyrate 500 mg/kg, oral gavage every other day for one week
[15] = system: HCT116-generated tumors; experiment: Mouse xenograft tumor model; assay type: in vivo, Athymic nude mice; settings: adenoviral miR-22 intratumorally
Method: Athymic nude mice (female, 6 weeks old, Jackson Laboratory) were subcutaneously injected by HCT116 cells (1×10^6) in the flank region. When tumor size reached […] of cross-sectional area, a combination of RA plus butyrate or adenoviral-expressing miR-22 (Ad-miR-22) was administered. For RA plus butyrate treatment, mice received RA (2.5 μg/g body weight) and butyrate (1.2 mg/g body weight) intraperitoneally (IP) 5 times a week for 2 weeks. For Ad-miR-22 treatment, mice received Ad-miR-22 (1×10^9 Pfu) intratumorally (IT) twice a week for 2 weeks. Control groups received 1% DMSO in PBS and adenovirus scramble, respectively. Tumor dimensions were measured and tumor volume was calculated using V (volume)=W (width)^2×L (length)/2. All experimental protocols were approved by the University of California Davis Animal Care and Use Committee.

C[C@H](CCC(=O)O)[C@H]1CC[C@H]2[C@@H]3[C@H](O)C[C@@H]4C[C@H](O)CC[C@]4(C)[C@H]3CC[C@]12C [CDCA, chenodeoxycholic acid]
CYCLIN A2 levels ([1]; colon HCT116 cells, CDCA treatment or miR-22 mimic transfection): reduced CYCLIN A2 levels; also recorded: repression of cyclin A2
miR-22 induction [2]: induces miR-22
miR-22 induction ([2]; listed as chenodeoxycholic acid): induce miR-22
CYCLIN A2 levels ([3]; liver Huh7 cells): reduced CYCLIN A2 levels; also recorded: repression of cyclin A2

O=C(CCCCCCC(=O)Nc1ccccc1)NO [SAHA, suberanilohydroxamic acid]
Acetylated NUR77 and RARβ [4]: increased acetylated NUR77 and RARβ
NUR77 binding to BRE and CCND2 promoter regions and their mRNA levels (NUR77 transcriptional activity) [5]: reduced NUR77 binding
Induction and localization of NUR77 and RARβ (immunostaining) [6]: markedly induced NUR77 and RARβ
Cell viability (MTT assay) [7]: reduced cell viability
Cell viability [7]: significantly reduced cell viability; also recorded: Markedly reduced cell viability
H3K9 acetylation of NUR77 and RARβ genes (ChIP-qPCR) [8]: increased H3K9 acetylation
Recruitment of HDAC1, HDAC4, and SIRT1 to the regulatory region of NUR77 and RARβ (ChIP-qPCR) [8]: decreased recruitment of HDAC1, HDAC4, and SIRT1
Histone acetylation (H3K9Ac) in the gene encoding RARβ (ChIP-qPCR) [8]: increased histone acetylation
Recruitment of HDAC4 and SIRT1 to the RARB gene (ChIP-qPCR) [8]: reduced the recruitment of HDAC4 and SIRT1
Increase of RARβ binding to the DR5 motif upstream of RARβ and CYP26A1 genes [9]: 2.5 folds
miR-22 expression level [10]: upregulated; also recorded: could induce miR-22; also recorded: induced; also recorded: increased miR-22 level
RARB (RARβ) expression / transcription [11]: upregulated
Protein levels of HDAC1, HDAC4, SIRT1, and cyclin A2 (CCNA2) [12]: reduced HDAC1, HDAC4, SIRT1, and CCNA2 protein levels

CCCC(=O)[O-].[Na+] [butyrate, sodium butyrate]
Inhibition of HDAC classes [13]: inhibit Class I (HDAC1, 2, 3, and 8) and Class IIa (HDAC4, 5, 7, and 9)
Acetylated NUR77 and RARβ [4]: only increased acetylated NUR77
NUR77 binding to BRE and CCND2 promoter regions and their mRNA levels (NUR77 transcriptional activity) [5]: reduced NUR77 binding
Induction and localization of NUR77 and RARβ (immunostaining) [6]: markedly induced NUR77 and RARβ
Cell viability (MTT assay) [7]: reduced cell viability
Cell viability [7]: Markedly reduced cell viability
H3K9 acetylation of NUR77 and RARβ genes (ChIP-qPCR) [8]: increased H3K9 acetylation
Recruitment of HDAC1, HDAC4, and SIRT1 to the regulatory region of NUR77 and RARβ (ChIP-qPCR) [8]: decreased recruitment of HDAC1, HDAC4, and SIRT1
Histone acetylation (H3K9Ac) in the gene encoding RARβ (ChIP-qPCR) [8]: increased histone acetylation
Recruitment of HDAC4 and SIRT1 to the RARB gene (ChIP-qPCR) [8]: reduced the recruitment of HDAC4 and SIRT1; also recorded: decreased the recruitment of HDAC4 and SIRT1
Increase of RARβ binding to the DR5 motif upstream of RARβ and CYP26A1 genes [9]: 4 folds
miR-22 expression level [10]: upregulated; also recorded: induce miR-22; also recorded: induced; also recorded: increased miR-22 level
Expression of Gpr41 and Gpr43 [14]: could induce the expression
Expression of Gpr109a [14]: induced Gpr109a
RARB (RARβ) expression / transcription [11]: upregulated
Protein levels of HDAC1, HDAC4, SIRT1, and cyclin A2 (CCNA2) [12]: reduced HDAC1, HDAC4, SIRT1, and CCNA2 protein levels

CCC(=O)[O-].[Na+] [propionate, sodium propionate]
Cell viability [7]: Markedly reduced cell viability
miR-22 expression level [10]: induced; also recorded: increased miR-22 level

CC(/C=C/C(=O)NO)=C\[C@@H](C)C(=O)c1ccc(N(C)C)cc1 [trichostatin A]
Inhibition of HDAC classes [13]: inhibit Class I (HDAC1, 2, 3, and 8) and Class IIa (HDAC4, 5, 7, and 9)

CCCCC(=O)O [valerate]
Cell viability [7]: Markedly reduced cell viability
miR-22 expression level [10]: induced; also recorded: increased miR-22 level

C=C1CC[C@H](O)C/C1=C/C=C1\CCC[C@]2(C)[C@@H]([C@H](C)CCCC(C)C)CC[C@@H]12 [vitamin D3]
miR-22 induction [2]: induce miR-22

miR-22: microRNA, SEQ ID NO:1 AAGCUGCCAGUUGAAGAACUGU (listed as RNA, chemistry not fully specified)
Acetylated NUR77 and RARβ [4]: increased acetylated NUR77 and RARβ
Protein levels of HDAC1, HDAC4, SIRT1, cyclin A2 after miR-22 (mimic) transfection ([1]; HCT116 cells, 48 hours after transfection, vs. scramble control): inhibited multiple HDACs; also recorded: inhibits HDAC1, HDAC4 and SIRT1; also recorded: HDAC1 protein level was reduced; also recorded: reduced HDAC4 and SIRT1; also recorded: suppress HDAC4 and SIRT1 expression; also recorded: reduces protein deacetylases, including HDAC1
HDACs and CCNA2 protein levels in tumors [15]: silenced HDACs and CCNA2
NUR77 and RARβ protein levels in tumors [15]: upregulating NUR77 and RARβ
Colon tumor growth / tumor size ([15]; xenograft mice): inhibited colon cancer growth; also recorded: effective in inhibiting the growth of colon cancer; also recorded: remarkable effectiveness
HDAC1, HDAC4, and SIRT1 levels ([3]; liver Huh7 cells treated with miR-22 mimic): inhibited multiple HDACs
